Activity data for seven compounds are collected here from ChEMBL document CHEMBL5370582, “Heterolactone and Heterolactams A-M, Verticillane Diterpenoids with Anti-Inflammatory and Hepatoprotective Activities from the Soft Coral Heteroxenia ghardaqensis” (J Nat Prod, 2023).

The species named for assay [1] is Danio rerio. Kind of assay: Hepatoprotective activity against isoniazid/alcohol-induced liver injury in transgenic Zebrafish larvae at 50 uM incubated for 72 hrs by fluorescence microscopy. The format is functional, organism-based.
The species entered for assay [2] is Danio rerio. Kind of assay: Anti-inflammatory activity against CuSO4-induced inflammatory response in transgenic Zebrafish larvae assessed as reduction in number of macrophages at 20 uM pretreated for 2 hrs followed by CuSO4-stimulation and measured after 1 hr by fluorescence microscopy. The format is functional, organism-based. The conditions noted are these: time 3.0 hrs.

SMILES strings stand for the structures. Calls of active or inactive are those of the source. No cut-off for these calls is given here.

For the compound `C[C@H]1CC[C@@H]2CCC3=C(C2(C)C)[C@@](O)(C[C@@H](C)CC(=O)C1)NC3=O`, the result in assay [1] was Active. Same read-out and setting: with `C[S+](CC[C@H](N)C(=O)[O-])C[C@H]1O[C@@H](n2cnc3c(N)ncnc32)[C@H](O)[C@@H]1O` (stereo partly drawn) the entry was “Active”. As for `C[C@H]1CC[C@@H]2CCC3=C([C@@H](C[C@@H](C)CC(=O)C1)N(CCc1ccccc1)C3=O)C2(C)C`, the result in assay [2] was Active. As for `COc1ccc2c(c1)c(CC(=O)O)c(C)n2C(=O)c1ccc(Cl)cc1`, in assay [2], the outcome was Active. Still for that read-out and setting: the entry for `C[C@H]1CC[C@@H]2CCC3=C(C2(C)C)[C@@](O)(C[C@@H](C)CC(=O)C1)N(CCc1ccccc1)C3=O` is “Active”. `CC(C)CCN1C(=O)[C@@]2(C)CC[C@H]3CC[C@H](C)CC(=O)C[C@H](C)/C=C\1[C@]2(O)C3(C)C`: the outcome in assay [1] was Active.

Regarding `C[C@H]1CC[C@@H]2CCC3=C([C@@H](C[C@@H](C)CC(=O)C1)N(CCO)C3=O)C2(C)C`, the result in assay [2] and in assay [1] was Active.
